Reference: paper doi:10.1101/822718v2 (biorxiv, 2020)
Where two headings read alike, the source gives them in different places. Blank lines part the entries; values can stand above or below the compound they belong to.

Experiments:
[1] = biological target: T1, truncated elephant shark GR (Elephant shark GR-DBD-hinge-LBD) (Callorhinchus milii, UniProt V9KGN8); assay: cell-based; design: species or system HEK293
T1 sequence (V9KGN8 346-704 limits assumed): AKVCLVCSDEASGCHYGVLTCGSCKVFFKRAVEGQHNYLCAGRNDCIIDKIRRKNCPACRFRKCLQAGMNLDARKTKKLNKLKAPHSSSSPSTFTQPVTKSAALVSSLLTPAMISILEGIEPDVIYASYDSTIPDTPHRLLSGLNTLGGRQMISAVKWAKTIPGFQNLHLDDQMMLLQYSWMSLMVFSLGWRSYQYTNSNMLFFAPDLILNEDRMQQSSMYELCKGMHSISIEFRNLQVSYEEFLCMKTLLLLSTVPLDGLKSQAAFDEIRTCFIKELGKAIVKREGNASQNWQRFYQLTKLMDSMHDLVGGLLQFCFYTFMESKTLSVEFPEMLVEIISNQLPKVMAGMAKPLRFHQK

[2] = tested on: Elephant shark Chimera GR-NTD+MR-DBD-hinge-LBD; settings: agonist
[3] = biological target: T2, full-length elephant shark GR (Callorhinchus milii, UniProt V9KGN8); assay: cell-based; design: species or system HEK293
T2 sequence (V9KGN8 1-704): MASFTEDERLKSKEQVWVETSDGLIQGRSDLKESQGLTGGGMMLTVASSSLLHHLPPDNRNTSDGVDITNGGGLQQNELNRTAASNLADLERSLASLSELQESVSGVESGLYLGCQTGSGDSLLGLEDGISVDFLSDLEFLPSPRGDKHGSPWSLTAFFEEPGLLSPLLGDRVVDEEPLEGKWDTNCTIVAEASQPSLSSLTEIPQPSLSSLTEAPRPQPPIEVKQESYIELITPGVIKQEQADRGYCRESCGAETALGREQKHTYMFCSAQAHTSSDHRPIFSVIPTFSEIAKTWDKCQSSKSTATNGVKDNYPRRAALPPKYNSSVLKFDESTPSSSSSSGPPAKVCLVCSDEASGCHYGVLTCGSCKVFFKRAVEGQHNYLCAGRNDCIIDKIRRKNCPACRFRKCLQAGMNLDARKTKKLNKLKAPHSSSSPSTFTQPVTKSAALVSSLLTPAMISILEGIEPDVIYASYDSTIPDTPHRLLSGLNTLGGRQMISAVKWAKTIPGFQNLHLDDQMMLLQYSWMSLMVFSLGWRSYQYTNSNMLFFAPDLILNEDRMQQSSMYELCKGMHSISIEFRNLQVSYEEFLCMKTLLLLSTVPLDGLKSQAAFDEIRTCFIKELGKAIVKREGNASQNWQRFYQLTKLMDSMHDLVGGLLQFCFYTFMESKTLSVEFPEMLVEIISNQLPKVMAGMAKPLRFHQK

[4] = biological target: T3, full-length elephant shark MR (Callorhinchus milii, UniProt A0A4W3I5J5); assay: cell-based; design: species or system HEK293
T3 sequence (A0A4W3I5J5 1-956): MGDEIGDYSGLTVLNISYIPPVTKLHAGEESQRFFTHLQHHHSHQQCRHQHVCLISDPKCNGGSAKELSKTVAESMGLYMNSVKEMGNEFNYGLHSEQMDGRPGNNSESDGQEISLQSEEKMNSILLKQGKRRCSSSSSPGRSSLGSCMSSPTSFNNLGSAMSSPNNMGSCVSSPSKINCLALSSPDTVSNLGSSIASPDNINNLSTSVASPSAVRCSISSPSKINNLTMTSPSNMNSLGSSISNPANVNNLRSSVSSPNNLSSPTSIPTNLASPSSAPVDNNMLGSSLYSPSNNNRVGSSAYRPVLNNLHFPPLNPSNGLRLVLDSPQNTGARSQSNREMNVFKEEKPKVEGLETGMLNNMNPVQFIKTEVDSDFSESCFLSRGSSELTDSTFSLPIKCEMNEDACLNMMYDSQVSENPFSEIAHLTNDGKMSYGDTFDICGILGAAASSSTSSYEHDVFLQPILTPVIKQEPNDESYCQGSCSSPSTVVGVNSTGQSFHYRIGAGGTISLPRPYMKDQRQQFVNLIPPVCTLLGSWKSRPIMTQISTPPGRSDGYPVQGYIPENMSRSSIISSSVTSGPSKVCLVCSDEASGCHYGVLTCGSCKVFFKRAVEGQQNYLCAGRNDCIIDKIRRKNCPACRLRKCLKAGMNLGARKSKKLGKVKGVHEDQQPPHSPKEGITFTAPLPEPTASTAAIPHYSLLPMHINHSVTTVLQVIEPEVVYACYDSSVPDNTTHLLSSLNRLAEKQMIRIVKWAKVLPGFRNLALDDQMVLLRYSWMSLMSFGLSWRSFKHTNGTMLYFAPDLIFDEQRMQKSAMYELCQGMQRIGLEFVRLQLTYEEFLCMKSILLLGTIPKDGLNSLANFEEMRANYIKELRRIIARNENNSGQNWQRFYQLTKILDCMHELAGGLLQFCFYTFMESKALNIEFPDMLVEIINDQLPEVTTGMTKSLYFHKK

[5] = biological target: T4, truncated elephant shark MR (Elephant shark MR-DBD-hinge-LBD) (Callorhinchus milii, UniProt A0A4W3I5J5); assay: cell-based; design: species or system HEK293
T4 sequence (A0A4W3I5J5 575-956 limits assumed): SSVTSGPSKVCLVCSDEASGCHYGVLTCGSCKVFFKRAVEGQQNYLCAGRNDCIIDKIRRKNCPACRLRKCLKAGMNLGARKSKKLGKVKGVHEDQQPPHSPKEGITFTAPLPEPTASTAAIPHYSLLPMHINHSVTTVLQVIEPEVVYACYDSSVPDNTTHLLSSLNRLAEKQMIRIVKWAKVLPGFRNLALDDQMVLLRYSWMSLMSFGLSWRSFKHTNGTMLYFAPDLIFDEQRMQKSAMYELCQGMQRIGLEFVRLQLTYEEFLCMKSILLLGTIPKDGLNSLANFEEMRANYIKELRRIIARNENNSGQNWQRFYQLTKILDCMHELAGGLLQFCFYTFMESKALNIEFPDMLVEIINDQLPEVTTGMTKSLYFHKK

[6] = biological target: T2, full-length elephant shark GR; assay: transactivation assay, MMTV-luciferase reporter, HEK293 cells; type: cell-based
[7] = biological target: truncated elephant shark MR (Elephant shark MR-DBD-hinge-LBD) (Callorhinchus milii, UniProt A0A4W3I5J5); assay: cell-based
[8] = biological target: T4, truncated elephant shark MR (Elephant shark MR-DBD-hinge-LBD); assay: cell-based; design: species or system HEK293; remark: listed apart in the source
[9] = biological target: T2, full-length elephant shark GR; assay: luciferase reporter transactivation, HEK293 cells; type: cell-based
[10] = biological target: T2, full-length elephant shark GR; assay: inhibition of dexamethasone-activated luciferase reporter, HEK293 cells; type: cell-based
[11] = biological target: T5, GAL4-DBD+elephant shark GR-hinge-LBD (Callorhinchus milii, UniProt V9KGN8); assay: cell-based; design: species or system HEK293
T5 sequence (V9KGN8 422-704 limits assumed): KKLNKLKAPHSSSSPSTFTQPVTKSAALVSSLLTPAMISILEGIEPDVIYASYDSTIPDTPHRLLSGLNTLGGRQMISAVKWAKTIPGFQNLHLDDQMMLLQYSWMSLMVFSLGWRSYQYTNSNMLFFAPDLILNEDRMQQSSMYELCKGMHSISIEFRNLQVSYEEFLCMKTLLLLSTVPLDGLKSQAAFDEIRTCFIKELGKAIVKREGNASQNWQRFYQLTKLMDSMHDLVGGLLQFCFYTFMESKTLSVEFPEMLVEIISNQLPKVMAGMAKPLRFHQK

[12] = tested on: Elephant shark Chimera MR-NTD+GR-DBD-hinge-LBD; assay: transactivation assay, MMTV-luciferase reporter, HEK293 cells; type: cell-based, Callorhinchus milii; settings: agonist
[13] = HEK293, read-out: DOC % Relative Induction, GR
[14] = HEK293, read-out: DOC % Relative Induction, MR
[15] = HEK293, read-out: Aldo % Relative Induction, GR
[16] = HEK293, read-out: Corticosterone % Relative Induction, GR
[17] = HEK293, read-out: Corticosterone % Relative Induction, MR
[18] = HEK293, read-out: Cortisol % Relative Induction, GR
[19] = HEK293, read-out: Cortisol % Relative Induction, MR
[20] = HEK293, read-out: Prog % Relative Induction, MR

SMILES: C[C@]12CC[C@H]3[C@@H](CCC4=CC(=O)CC[C@@]43C)[C@@H]1CC[C@@H]2C(=O)CO [11-deoxycorticosterone]
Emax [1, 13]: 30% | EC50 [2]: 0.03 nM | Emax [3, 13]: 53% | Emax [4, 14]: 86% | Emax [5, 14]: 77% | EC50 [6]: ~28 nM | EC50 [7]: 0.1 nM

SMILES: CC(=O)[C@H]1CC[C@H]2[C@@H]3CCC4=CC(=O)CC[C@@H]4[C@H]3CC[C@]12C [19norProg]
Emax ([4]; HEK293, read-out: 19norProg % Relative Induction, MR): 79% | EC50 [8]: 0.2 nM

EC50 [9]: 8.7 nM | IC50 [10]: 2.2 nM
SMILES: CC#C[C@]1(O)CC[C@H]2[C@@H]3CCC4=CC(=O)CCC4=C3[C@@H](c3ccc(N(C)C)cc3)C[C@@]21C [RU486]

Emax [1, 15]: 109% | Emax [3, 15]: 92% | EC50 [8]: 0.26 nM | Emax [11, 15]: 81% | EC50 [6]: ~24 nM
SMILES: C[C@]12CCC(=O)C=C1CC[C@@H]1[C@@H]2[C@@H](O)C[C@]2(C=O)[C@@H](C(=O)CO)CC[C@@H]12 [aldosterone]

Emax [1, 16]: 100% | EC50 [12]: 13 nM | Emax [3, 16]: 100% | Emax [4, 17]: 88% | EC50 [8]: 0.58 nM | Emax [11, 16]: 100% | Emax [5, 17]: 111%
SMILES: C[C@]12C[C@H](O)[C@H]3[C@@H](CCC4=CC(=O)CC[C@@]43C)[C@@H]1CC[C@@H]2C(=O)CO [corticosterone]

Emax [1, 18]: 112% | Emax [3, 18]: 88% | Emax [4, 19]: 118% | EC50 [8]: 1.1 nM | Emax [5, 19]: 117% | EC50 [6]: ~35 nM
SMILES: C[C@]12CCC(=O)C=C1CC[C@@H]1[C@@H]2[C@@H](O)C[C@@]2(C)[C@H]1CC[C@]2(O)C(=O)CO [cortisol]

Emax [4, 20]: 38% | Emax [5, 20]: 78%
SMILES: CC(=O)[C@H]1CC[C@H]2[C@@H]3CCC4=CC(=O)CC[C@]4(C)[C@H]3CC[C@]12C [progesterone]
